Measurements from patent US20230192772A1, “ANTIMICROBIAL PEPTIDES AND USES THEREOF” (SORBONNE UNIVERSITE, priority 2016, published 2023).
≈ marks a conversion by molar mass, not a printed value.

Key:
Assay in all cases: MIC/MBC (Example 10, MH medium)
Format in all cases: cell-based
[1] = system: Staphylococcus aureus ST 1065; conditions: Table 4
Procedure: (§1) The MIC is determined using a growth inhibition test in liquid medium. The MIC is defined as being the lowest peptide concentration capable of inhibiting the bacterial strain tested, after incubation for 18 h at 37° C. The test was carried out in a sterile microtitration plate containing 96 wells. A series of increasing concentrations of each peptide (0.2 to 100 µM) was prepared beforehand in sterile MilliQ water. In each well, 10 µL of peptide was incubated with 90 µL of bacterial suspension (10^7 cfu/mL) in yeast extract-free LB medium. The microplate was incubated at 37° C. for 18 h. The bacterial growth was evaluated by measuring the OD at 620 nm using a plate reader.
(§2) The negative growth inhibition control was obtained by replacing the solution containing the peptide by sterile MilliQ water. The positive control suitable for completely inhibiting the growth of the bacterial strains was obtained by replacing the solution containing the peptide by 10 µL of formaldehyde.
(§3) The results are interpreted by calculating the percentage of bacterial growth in each well according to the formula:
(§4) %Growth = (OD well - OD of T0)/(OD of T100-OD of T0)*100 where
(§5) • OD of T100 = OD of growth control (bacterial suspension free from sample under test, 100% growth), • OD of T0 = OD of sterility control (culture medium + bacterium + 10 µL formaldehyde, 0% growth) and • OD well = OD of well for which it is sought to calculate the growth percentage (bacterial suspension + peptide under test).
(§6) The MBC is defined as being the minimum peptide concentration leaving no surviving bacteria of the inoculum after incubation at 37° C. for 24 hours. This test consists of smearing the contents of the well wherein the peptide has inhibited bacterial growth on a Petri dish (LB agar), followed by incubation for 24 h at 37° C.
(§7) A 10 mL preculture in Muller-Hinton (MH) medium is prepared by inoculating a colony of the bacterial strain of interest. The preculture is incubated at 37° C. under stirring overnight. The culture is subcultured to 1:100 under the same conditions. The culture concentration is evaluated by measuring the turbidity at 600 nm (OD600 nm 1.0 = 5 × 10^8 CFU/mL for E. coli (Gram-negative bacteria) and 1.5 × 10^8 CFU/mL for S. aureus (Gram-positive bacteria). Once the exponential growth phase (OD600 nm = 0.3 - 0.7) has been achieved, the cultures are diluted in MH medium so as to obtain 10^6 CFU/mL (final inoculum concentration).
(§8) The MIC and the MBC were determined as per the protocol described in part 2.1 of Example 2.

[2] = system: Pseudomonas aeruginosa ATCC 27853; conditions: Table 4
Procedure: as §1, §2, §3, §4, §5, §6, §7, §8

[3] = system: Listeria monocytogenes SOR 100; conditions: Table 4
Procedure: as §1, §2, §3, §4, §5, §6, §7, §8

[4] = system: Salmonella enterica CIP 8297; conditions: Table 4
Procedure: as §1, §2, §3, §4, §5, §6, §7, §8

[5] = system: Lactococcus garviae ATCC 43921; conditions: Table 4
Procedure: as §1, §2, §3, §4, §5, §6, §7, §8

Escherichia coli K12 = conditions: Table 4
Procedure: as §1, §2, §3, §4, §5, §6, §7, §8

[6] = system: Escherichia coli ATCC 8739
Procedure: as §1, §2, §3, §4, §5, §6, §7, §8

[7] = system: Staphylococcus epidermidis BM 3302; conditions: Table 4
Procedure: as §1, §2, §3, §4, §5, §6, §7, §8

[8] = system: Kocuria rhizophila ATCC 9341; conditions: Table 4
Procedure: as §1, §2, §3, §4, §5, §6, §7, §8

[9] = system: Vibrio parahemolyticus IFREMER 01/252; conditions: Table 4
Procedure: as §1, §2, §3, §4, §5, §6, §7, §8

[10] = system: Yersinia ruckeri ATCC 29473; conditions: Table 4
Procedure: as §1, §2, §3, §4, §5, §6, §7, §8

[11] = system: Klebsiella oxytoca CIP 7932; conditions: Table 4
Procedure: as §1, §2, §3, §4, §5, §6, §7, §8

[12] = system: Escherichia coli P7 (ESBL); conditions: Table 4
Procedure: as §1, §2, §3, §4, §5, §6, §7, §8

[13] = system: Staphylococcus aureus ATCC 6538
Procedure: as §1, §2, §3, §4, §5, §6, §7, §8

[14] = system: Pseudomonas aeruginosa ATCC 9027
Procedure: as §1, §2, §3, §4, §5, §6, §7, §8

[15] = system: Klebsiella pneumoniae CIP 52.211; conditions: Table 4
Procedure: as §1, §2, §3, §4, §5, §6, §7, §8

Escherichia coli ML35p = conditions: Table 4
Procedure: as §1, §2, §3, §4, §5, §6, §7, §8

[16] = system: Enterococcus faecalis CIP A186; conditions: Table 4
Procedure: as §1, §2, §3, §4, §5, §6, §7, §8

[17] = system: Enterococcus faecalis CIP 103015
Procedure: as §1, §2, §3, §4, §5, §6, §7, §8

[18] = system: Staphylococcus aureus MRSA; conditions: Table 4
Procedure: as §1, §2, §3, §4, §5, §6, §7, §8

[19] = Table 4, Escherichia coli ATCC 8739
[20] = Table 4, Staphylococcus aureus ATCC 6538
[21] = Table 4, Pseudomonas aeruginosa ATCC 9027
[22] = Table 5, P. aeruginosa ATCC 9027
[23] = Table 4, Enterococcus faecalis CIP 103015
[24] = Table 5, E. faecalis CIP 103015

Structure (SMILES): CC[C@H](C)[C@H](NC(=O)CN)C(=O)NCC(=O)N[C@@H](C)C(=O)N[C@H](C(=O)N[C@@H](CC(C)C)C(=O)N[C@@H](CCCCN)C(=O)N[C@H](C(=O)N[C@@H](CC(C)C)C(=O)N[C@H](C(=O)N[C@H](C(=O)NCC(=O)N[C@@H](CC(C)C)C(=O)N1CCC[C@H]1C(=O)N[C@@H](C)C(=O)N[C@@H](CC(C)C)C(=O)N[C@H](C(=O)N[C@@H](CO)C(=O)N[C@@H](Cc1c[nH]c2ccccc12)C(=O)N[C@H](C(=O)N[C@@H](CCCCN)C(=O)N[C@@H](CCCNC(=N)N)C(=O)N[C@@H](CCCCN)C(=O)N[C@@H](CCCNC(=N)N)C(=O)N[C@@H](CCC(N)=O)C(=O)N[C@@H](CCC(N)=O)C(N)=O)[C@@H](C)CC)[C@@H](C)CC)[C@@H](C)O)[C@@H](C)O)C(C)C)C(C)C [Melittin]
- MBC [1]: 10 µM (≈ 28.5 µg/mL)
- MIC [1]: 10 µM (≈ 28.5 µg/mL)
- MBC [2]: > 50 µM
- MIC [2]: 50 µM (≈ 142 µg/mL)
- MBC [3]: 3.12 µM (≈ 8.88 µg/mL)
- MIC [3]: 1.5 µM (≈ 4.27 µg/mL)
- MBC [4]: > 50 µM
- MIC [4]: 50 µM (≈ 142 µg/mL)
- MBC [5]: 25 µM (≈ 71.2 µg/mL)
- MIC [5]: 6.25 µM (≈ 17.8 µg/mL)
- MBC (Escherichia coli K12): 10 µM (≈ 28.5 µg/mL)
- MIC (Escherichia coli K12): 10 µM (≈ 28.5 µg/mL)
- MBC [6, 19]: 2.5 µM (≈ 7.12 µg/mL)
- MIC [6, 19]: 2.5 µM (≈ 7.12 µg/mL)
- MBC ([6]; Table 5, E. coli ATCC 8739): 2.5 µM (≈ 7.12 µg/mL)
- MIC ([6]; Table 5, E. coli ATCC 8739): 2.5 µM (≈ 7.12 µg/mL)
- MBC [7]: 10 µM (≈ 28.5 µg/mL)
- MIC [7]: 10 µM (≈ 28.5 µg/mL)
- MBC [8]: 0.8 µM (≈ 2.28 µg/mL)
- MIC [8]: 0.8 µM (≈ 2.28 µg/mL)
- MBC [9]: > 50 µM
- MIC [9]: > 50 µM
- MBC [10]: 12.5 µM (≈ 35.6 µg/mL)
- MIC [10]: 6.25 µM (≈ 17.8 µg/mL)
- MBC [11]: 50 µM (≈ 142 µg/mL)
- MIC [11]: 25 µM (≈ 71.2 µg/mL)
- MBC [12]: 6.25 µM (≈ 17.8 µg/mL)
- MIC [12]: 6.25 µM (≈ 17.8 µg/mL)
- MBC [13, 20]: 5 µM (≈ 14.2 µg/mL)
- MIC [13, 20]: 5 µM (≈ 14.2 µg/mL)
- MBC ([13]; Table 5, S. aureus ATCC 6538): 5 µM (≈ 14.2 µg/mL)
- MIC ([13]; Table 5, S. aureus ATCC 6538): 5 µM (≈ 14.2 µg/mL)
- MBC [14, 21]: 5 µM (≈ 14.2 µg/mL)
- MIC [14, 21]: 5 µM (≈ 14.2 µg/mL)
- MBC [14, 22]: 5 µM (≈ 14.2 µg/mL)
- MIC [14, 22]: 5 µM (≈ 14.2 µg/mL)
- MBC [15]: 10 µM (≈ 28.5 µg/mL)
- MIC [15]: 10 µM (≈ 28.5 µg/mL)
- MBC (Escherichia coli ML35p): 10 µM (≈ 28.5 µg/mL)
- MIC (Escherichia coli ML35p): 10 µM (≈ 28.5 µg/mL)
- MBC [16]: 12.5 µM (≈ 35.6 µg/mL)
- MIC [16]: 12.5 µM (≈ 35.6 µg/mL)
- MBC [17, 23]: 1.25 µM (≈ 3.56 µg/mL)
- MIC [17, 23]: 1.25 µM (≈ 3.56 µg/mL)
- MBC [17, 24]: 1.2 µM (≈ 3.42 µg/mL)
- MIC [17, 24]: 1.2 µM (≈ 3.42 µg/mL)
- MBC [18]: 12.5 µM (≈ 35.6 µg/mL)
- MIC [18]: 6.25 µM (≈ 17.8 µg/mL)
